Measurements: PMC6987128, “Target protein-oriented isolation of Hes1 dimer inhibitors using protein based methods” (Scientific Reports, 2020)

Target: T1, Hes1 dimer formation (Hes1-Hes1 interaction) (Rattus norvegicus, UniProt Q04666)
T1 construct: Glutathione-S-transferase (GST) fused rat Hes1(3–281) protein was expressed in Escherichia coli; GST (N, cleaved yes); GST (N); made in house; host or cells: Escherichia coli JM109 (pGEX-ratHes1 3-281)
T1 sequence (Q04666 3-281): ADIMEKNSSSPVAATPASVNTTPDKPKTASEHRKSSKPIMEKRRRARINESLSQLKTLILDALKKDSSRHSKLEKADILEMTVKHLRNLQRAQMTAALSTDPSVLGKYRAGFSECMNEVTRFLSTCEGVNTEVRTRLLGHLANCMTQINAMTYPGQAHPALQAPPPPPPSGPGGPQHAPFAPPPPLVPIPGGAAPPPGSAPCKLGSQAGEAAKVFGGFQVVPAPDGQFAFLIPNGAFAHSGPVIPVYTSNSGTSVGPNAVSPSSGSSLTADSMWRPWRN
Assay: Hes1-Hes1 interaction fluorescent plate assay (Hes1 dimer formation inhibition)
Type: binding
Text: It is essential to inhibit undesired PPIs in drug development, and bioactivity-guided isolation using the inhibitory activity of PPIs is an attractive method to obtain effective inhibitors. However, currently there are only a few examples of such approaches using PPI assay systems[22],[23]. We previously developed a Hes1-Hes1 interaction fluorescent plate assay and reported the screening results of our natural products compound library (Fig. 2A)[24]. Glutathione-S-transferase (GST) fused rat Hes1(3–281) protein was expressed in Escherichia coli and purified rat Hes1 protein was immobilized on the bottom of 96 well plates. We prevented GST-GST interactions, which would result in false positives, by preparing GST-free Hes1 protein by GST cleavage with Turbo3C protease. After labeling Hes1 with Cy3, this florescent Hes1 protein was added to the wells of the above plate and incubated for 24 h at 4 °C. Hes1-Hes1 interaction was successfully detected as Cy3 fluorescence intensity. Using this assay system, we screened our 118 plant extract library and identified the MeOH extract of Psidium guajava leaves to contain naturally occurring compounds that inhibit Hes1 dimer formation. The MeOH extract (29.9 g) was fractionated using Diaion HP-20 with a MeOH-acetone solvent system to afford fractions 1A to 1C. Active fraction 1A (27.2 g) was suspended in 10% aq. MeOH and partitioned with hexane, EtOAc and BuOH to obtain hexane (1.1 g), EtOAc (5.7 g), BuOH (4.7 g) and aqueous (18.9 g) soluble fractions. Part of the active BuOH soluble fraction was subjected to ODS column chromatography and reverse-phase HPLC. Activity-guided separation yielded ten compounds (1–10; Fig. 3). The isolated compounds were identified as morin (1)[25], isoquercitrin (2)[26], methyl gallate (3)[27], (+)-catechin (4)[28],[29], dihydrophaseic acid (5)[30], quercetin (6)[26],[31], avicularin (7)[32],[33], gallic acid (8)[34], protocatechuic acid (9)[35] and 4-hydroxybenzoic acid (10)[36] based on comparisons of their spectral data with spectra in the literature.
Hes1-bound microplate wells[24] (Nunc Immobilizer^TM Amino Plate, Thermo) were incubated with 50 μL of Cy3-labeled-Hes1 in NET-N buffer (NET buffer (20 mM Tris-HCl, pH 7.5, 200 mM NaCl, 1 mM EDTA) containing 0.05% Nonidet® P-40, ca. 7 mg/L, dye/protein = 0.4) for 24 h at 4 °C. After removing the protein solution, the wells were washed twice with 200 μL of PBST, then each compound solution (in NET-N buffer, 50 μL) was added and the plates were incubated for 1 h at RT in the dark. The wells were washed twice with 200 μL of PBST, then dried under reduced pressure for 1 h in the dark. The Cy3 dye was excited at 544 nm and emission was monitored at 590 nm using a microplate reader (Fluoroskan Ascent, Thermo Labsystems, Vantaa, Finland). The assays were typically carried out in three individual wells, and the mean value and SD were calculated. The equilibrium between dimer formation between Cy3-Hes1/Cy3-Hes1 (in solution) and Cy3-Hes1/immobilized-Hes1 allowed the detection of Cy3-Hes1/immobilized-Hes1.
Typical procedure; Nunc Immobilizer^TM Amino 96 well Plate, white (Nalge Nunc Int., NY, USA) was used for immobilizing of Hes1. The micro plate wells were incubated with 100 µl of Hes1 (10 µg/mL in PBS) 2 h at 4 °C. After removing protein solution, the wells were incubated for 2 h at 4 °C with 100 µL of 10 mM ethanolamine (in 100 mM Na2CO3 buffer, pH 9.6) to block remaining activated units on the well. Then, wells were washed twice with 200 µL of PBST (PBS containing 0.05% Tween 20).
The Cy3 dye reagent was prepared as 1 vial of Cy3 monofunctional dye reagent (succinimidylester type; GE Healthcare, Buckinghamshire, UK) in DMSO (50 µL) and stored at -20 °C. Cy3-labeled Hes1 was prepared by mixing of protein in PBS with Cy3 dye reagent in DMSO (typically 0.6 µL of DMSO solution to 1 mL of 10 mg/L protein solution in PBS) for 30 min at 4 °C in the dark. […]

CC1OC(Oc2cc3c(=O)oc4c(O)c(O)cc5c(=O)oc(c2O)c3c45)C(O)C(O)C1OC(=O)c1cc(O)c(O)c(O)c1 [Compound 11, 4-O-(4″-O-galloyl-α-L-rhamnopyranosyl)ellagic acid]
remaining activity at 2.5 µM (24 h, 2.5 μM compound, 0 μM = 100, read-out: Hes1 dimer formation rate (%)): 50.4% | remaining activity at 5 µM (24 h, 5 μM compound, 0 μM = 100, read-out: Hes1 dimer formation rate (%)): 27.6% | remaining activity at 10 µM (24 h, 10 μM compound, 0 μM = 100, read-out: Hes1 dimer formation rate (%)): 18.1% | remaining activity at 25 µM (24 h, 25 μM compound, 0 μM = 100, read-out: Hes1 dimer formation rate (%)): 4.1% | IC50 (Cy3-labeled Hes1 / immobilized Hes1, compound 1 h at RT, read-out: Hes1 dimer formation inhibitory activity IC50): 2530 nM
